Assay results from patent US11274136B2, “Acylated glucagon analogue” (Zealand Pharma A/S, priority 2015, dated 2022).

Assays:
[1] = molecular target: T1, human glucagon-like peptide 1 receptor (GLP-1R) (Homo sapiens, UniProt P43220); assay: GLP-1 receptor efficacy assay (cAMP AlphaScreen, CHO cells); assay type: cell-based; conditions: EC50[GLP-1R]/EC50[Glucagon-R], human receptors in CHO-K1
T1 construct: expressed in transfected cells
Source text: The cDNA encoding either the human glucagon receptor (Glucagon-R) (primary accession number P47871) or the human glucagon-like peptide 1 receptor (GLP-1R) (primary accession number P43220) were synthesized and cloned into a mammalian expression vector containing a Zeocin resistance marker.
The mammalian expression vectors encoding the Glucagon-R or the GLP-1-R were transfected into Chinese hamster ovary (CHO) cells by the Attractene method. Stably expressing clones were obtained by Zeocin selection (250 μg/mL) upon limited dilution of cells resistant to the selection pressure. Glucagon-R and GLP-1-R cell clones expressing were picked, propagated and tested in the Glucagon-R and GLP-1-R efficacy assays as described below. […]
CHO cells expressing the human Glucagon-R, or human GLP-1-R were seeded 24 hours prior to the assay at 5000 cells per well in 384-well microtiter plates in culture in 50 μl growth medium. […] After two hours of incubation at room temperature in the dark, the cAMP content was determined applying the AlphaScreen™ cAMP Functional Assay Kit from Perkin-Elmer according to manufacturer instructions. EC50 and relative efficacies compared to reference compounds (glucagon and GLP-1) were calculated applying computer aided curve fitting. The GLP-1/glucagon ratio is calculated as defined earlier.

[2] = Pharmacokinetic parameters after intravenous administration to rats; assay type: in vivo; conditions: Han/Wistar, rat, plasma, male Wistar rats, 20 nmol/kg
Description: Pharmacokinetic parameters of the test compounds were determined after intravenous administration to Han/Wistar rats. The acylated GLP-1 analogue semaglutide was also tested for comparison purposes.
Male Wistar rats were obtained from Charles River (Germany) weighing approximately 180 to 210 g at time of arrival at the test facility. Rats were caged in European standard rat cages type IV with light cycle of 12-hour dark and 12-hour light. During the study rats were housed in standard rat cages type III. Both diet Altromin 1324 (Altromin, Germany) and water was administered ad libitum during the whole experimental period. The animals were housed in the test facility for at least 4 days in order to assure proper acclimatization.
The compounds were first dissolved in 0.1% aqueous ammonia to a nominal concentration of 2 mg/ml, and then diluted to the desired dosing strength (10 μM) in sterile PBS containing 25 mM phosphate buffer, pH 7.4. Intravenous injections corresponding to 20 nmol/kg were given via a lateral tail vein.
Blood samples (200 μl) were collected from the periorbital plexus at time points 0.08, 0.25, 0.5, 1, 2, 4, 8, 24, 32 and 48 h post dosing into K3EDTA tubes and centrifuged for 5 minutes at 4° C. within 20 minutes of sampling. Plasma samples (>100 μl) were transferred to 96-well PCR plates, immediately frozen and kept at −20′C until analysed for plasma concentration for the respective GLP-1-glucagon compound using LC-MS/MS. Individual plasma concentration-time profiles were analysed by a non-compartmental approach using ToxKin™ version 3.2 (Unilog IT Services), and the resulting pharmacokinetic parameters were determined.

[3] = Oral glucose tolerance test (OGTT) in mice; assay type: in vivo; conditions: male C57BL6/J mice, 30 nmol/kg subcutaneous, blood glucose AUC 0-120 min
Description: Effects of the test compounds on glycemic control were determined by an oral glucose tolerance test (OGTT) in 7-8 weeks old male C57BL6/J mice (obtained from Charles River Laboratories, Germany). Animals were housed in groups in individually ventilated cages (Tecniplast green line) with a 12-hour light cycle. They had ad libitum excess to a standard rodent diet (Provimi Kliba 3438) and water. The animals were housed in the test facility for at least one week prior to the OGTT. All experimental protocols concerning the use of laboratory animals were reviewed by a federal Ethics Committee and approved by governmental authorities.
The compounds were first dissolved in 0.1% aqueous ammonia to a nominal concentration of 2 mg/ml, and then diluted to the desired dosing strength in sterile PBS containing 25 mM phosphate buffer, pH 7.4. Compounds were administered in the morning by subcutaneous injection at a dose of 30 nmol/kg and a volume of 5 ml/kg. Control animals received a vehicle injection only. The GLP-1 analogue liraglutide was tested for comparison purposes. Group size was 5 animals per group.
The OGTT was performed 24 h or 48 h after compound administration. Animals were fasted for 10 h before the OGTT but still had ad libitum excess to water. After overnight fasting, a baseline blood sample (0 min) was obtained by tail bleed and blood glucose was measured with a glucometer. […]

T1 sequence (P43220 24-463): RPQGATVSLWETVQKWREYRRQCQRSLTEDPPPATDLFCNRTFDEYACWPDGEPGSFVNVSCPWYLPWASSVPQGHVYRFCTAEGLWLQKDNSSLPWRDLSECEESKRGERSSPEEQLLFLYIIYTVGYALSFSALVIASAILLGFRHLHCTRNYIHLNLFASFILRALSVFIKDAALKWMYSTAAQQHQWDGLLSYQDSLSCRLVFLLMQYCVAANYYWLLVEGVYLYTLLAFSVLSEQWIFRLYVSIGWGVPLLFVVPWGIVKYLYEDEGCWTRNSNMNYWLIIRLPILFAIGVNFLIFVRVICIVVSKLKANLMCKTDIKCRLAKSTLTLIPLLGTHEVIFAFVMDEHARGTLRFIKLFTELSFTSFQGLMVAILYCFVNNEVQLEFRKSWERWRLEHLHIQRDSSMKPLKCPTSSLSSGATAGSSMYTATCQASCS

Ratio GLP-1/Glucagon [1]: 0.13
clearance [2]: 5.4 mL/h/kg
MRT ([2]; read-out: Mean Residence Time): 19.2 h
half-life ([2]; read-out: Terminal half life (converted)): 15.2 h
Compound: CC[C@H](C)[C@H](NC(=O)[C@H](Cc1ccccc1)NC(=O)[C@H](CC(=O)O)NC(=O)[C@H](CCCCN)NC(=O)[C@H](C)NC(=O)[C@H](C)NC(=O)[C@H](CCCNC(=N)N)NC(=O)[C@H](CCC(=O)O)NC(=O)[C@H](CC(=O)O)NC(=O)[C@H](CC(C)C)NC(=O)[C@H](Cc1ccc(O)cc1)NC(=O)[C@H](CCCCN)NC(=O)[C@H](CO)NC(=O)[C@H](Cc1ccc(O)cc1)NC(=O)[C@H](CC(=O)O)NC(=O)[C@H](CO)NC(=O)[C@@H](NC(=O)[C@H](Cc1ccccc1)NC(=O)[C@@H](NC(=O)CNC(=O)[C@H](CCC(N)=O)NC(=O)C(C)(C)NC(=O)[C@@H](N)Cc1c[nH]cn1)[C@@H](C)O)[C@@H](C)O)C(=O)N[C@@H](CCC(=O)O)C(=O)N[C@@H](Cc1c[nH]c2ccccc12)C(=O)N[C@@H](CC(C)C)C(=O)N[C@@H](CCC(=O)O)C(=O)N[C@@H](CCCCNC(=O)CNC(=O)CNC(=O)[C@H](CO)NC(=O)CNC(=O)[C@H](CO)NC(=O)CNC(=O)CC[C@H](NC(=O)CCCCCCCCCCCCCCCCC(=O)O)C(=O)O)C(=O)N[C@@H](C)C(N)=O [Compound 1]
OGTT AUC 30 nmol/kg 24 h ([3]; OGTT 24 h after administration): 56 % CTL
OGTT AUC 30 nmol/kg 48 h ([3]; OGTT 48 h after administration): 74 % CTL
